Laboratory results as given in US7915420B2, “Aryl piperidine amides” (Janssen Pharmaceutica NV, priority 2003, dated 2011).

molecular target: T1, human glycine transporter-2 (GlyT2) (Homo sapiens, UniProt Q9Y345); test: GlyT2 inhibitory activity: inhibition of [14C]-glycine uptake in COS-7 cells transfected with human GlyT2; type: cell-based; settings: Cos-7 cells stably transfected with human GlyT2; 20 μM 14C-glycine, 2 h at 37° C.
T1 construct: The entire coding region of the human GlyT2 cDNA was cloned into the mammalian expression vector pCINeo; expressed in transfected cells; host or cells: Cos-7 cells (African green monkey kidney), stably transfected, vector pCINeo, G418 selection
T1 sequence (Q9Y345 1-797): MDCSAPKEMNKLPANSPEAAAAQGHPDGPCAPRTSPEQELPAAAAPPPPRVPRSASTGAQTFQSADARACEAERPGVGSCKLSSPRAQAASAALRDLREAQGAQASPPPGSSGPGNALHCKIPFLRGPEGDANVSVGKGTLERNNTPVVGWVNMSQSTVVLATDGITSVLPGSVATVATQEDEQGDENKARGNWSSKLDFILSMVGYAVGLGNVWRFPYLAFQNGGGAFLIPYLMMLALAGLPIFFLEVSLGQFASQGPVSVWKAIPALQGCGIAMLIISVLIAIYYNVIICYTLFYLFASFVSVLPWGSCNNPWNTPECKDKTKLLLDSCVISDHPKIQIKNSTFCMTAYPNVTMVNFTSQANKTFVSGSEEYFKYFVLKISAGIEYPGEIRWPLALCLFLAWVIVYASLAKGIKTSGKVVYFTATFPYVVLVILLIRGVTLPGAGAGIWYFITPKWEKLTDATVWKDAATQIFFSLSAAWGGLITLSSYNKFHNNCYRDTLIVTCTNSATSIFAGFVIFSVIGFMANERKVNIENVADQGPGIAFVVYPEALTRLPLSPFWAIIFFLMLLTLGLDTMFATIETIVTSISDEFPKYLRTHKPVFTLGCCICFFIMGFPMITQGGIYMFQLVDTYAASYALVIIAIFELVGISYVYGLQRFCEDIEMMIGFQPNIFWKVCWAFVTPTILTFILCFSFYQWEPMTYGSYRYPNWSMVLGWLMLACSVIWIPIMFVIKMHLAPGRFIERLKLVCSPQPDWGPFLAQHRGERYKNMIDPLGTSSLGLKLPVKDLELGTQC
Procedure: GlyT2 antagonist activity of representative compounds of the invention was determined in accordance with the assay described in the Examples and by measuring the ability of compounds to inhibit the uptake of [^14C]-glycine in COS-7 cells transfected with the human glycine transporter-2 (GlyT2). The GlyT2 antagonist activities of these representative compounds are set forth hereinafter in Table 1.
Cos-7 cells (African green monkey, kidney) from American Type Culture Collection were grown in DMEM supplemented with 10% fetal bovine serum. The entire coding region of the human GlyT2 cDNA was cloned into the mammalian expression vector pCINeo, and then stably transfected into Cos-7 cells. Transfection was performed essentially as described by T. W. Lovenberg et al. (Mol. Pharmacol. 1999, 55:1101-1107). Cells are grown to 70-80% confluence, removed from the plate with trypsin, and pelleted in a clinical centrifuge. The pellet is resuspended in 400 μL complete medium and transferred to an electroporation cuvette with a 0.4 cm gap between the electrodes (Bio-Rad, 165-2088). One microgram of supercoiled GlyT2 cDNA is added to the cells, and the suspension is mixed. The voltage for the electroporation is set at 0.25 kV, and the capacitance is set at 960 μF. After electroporation, the cuvette contents are diluted to 10 mL with complete medium, and 0.5 mL, 1.0 mL, 2.0 mL and remainder (−6.5 mL) portions are plated onto four 10-cm dishes. The cells are incubated 24 h before adding 600 μg/mL G418. Colonies that survive selection are isolated and tested for GlyT2 expression.
The day before the assay, the GlyT2 expressing cells were plated into 96-well scintillating microplates (Amersham, RPNQ 0160) at a density of approximately 20,000 cells per well. Cells were grown overnight at 37° C. in 5% CO2 and then washed once with 37° C. HEPES buffered saline (HBS: 150 mM NaCl, 20 mM HEPES, 1 mM CaCl2, 10 mM glucose, 5 mM KCl, 1 mM MgCl2; pH 7.4). Eighty microliters of 37° C. HBS was subsequently added to each well. Test solutions of GlyT2 inhibitors were prepared in HBS from DMSO stock solutions, and 5 μL of test solution was added to each test well. Total transport and non-specific background were determined by adding 5 μL HBS or 5 μL 2 M glycine, respectively, to the appropriate control wells. Plates were then left at room temperature for 5 min before the addition of 20 μL of 100 μM ^14C-glycine (NEN, NEC 048H) to each well for a final concentration of 20 μM. Plates were incubated for 2 h at 37° C. with 5% CO2. After 2 h the reaction mixtures were removed by aspiration, and the plates were washed once with ice-cold HBS. Plates were sealed with TopSeal (Packard, 6005185) and counted on a Packard TopCount® scintillation counter.

IC50 [µM] | Compound
0.4 | CC(C)Oc1ccccc1OCCCNCc1cccc(C(=O)N2CCCCC2)c1 [Example 25, (3-{[3-(2-Isopropoxy-phenoxy)-propylamino]-methyl}-phenyl)-piperidin-1-yl-methanone]
1 | CC(C)Oc1cccc(NCCN(C)Cc2cccc(C(=O)N3CCCCC3)c2)c1 [Example 30, [3-({[2-(3-Isopropoxy-phenylamino)-ethyl]-methyl-amino}-methyl)-phenyl]-piperidin-1-yl-methanone]
> 10 | Nc1ccccc1NCCNCc1cccc(C(=O)N2CCCCC2)c1 [Example 12, (3-{[2-(2-Amino-phenylamino)-ethylamino]-methyl}-phenyl)-piperidin-1-yl-methanone]
2.5 | COc1ccccc1NCCNCc1cccc(C(=O)N2CCCCC2)c1 [Example 5, (3-{[2-(2-Methoxy-phenylamino)-ethylamino]-methyl}-phenyl)-piperidin-1-yl-methanone]
0.55 | CC(C)Nc1ccccc1NCCNCc1cccc(C(=O)N2CCCCC2)c1 [Example 13, (3-{[2-(2-Isopropylamino-phenylamino)-ethylamino]-methyl}-phenyl)-piperidin-1-yl-methanone]
1.2 | O=C(c1cccc(CNCCNc2ccccc2Cl)c1)N1CCCCC1 [Example 19, (3-{[2-(2-Chloro-phenylamino)-ethylamino]-methyl}-phenyl)-piperidin-1-yl-methanone]
3.1 | CC(C)Oc1ccccc1NCCNCc1cc(C(=O)N2CCCCC2)cs1 [Example 34, (5-{[2-(2-Isopropoxy-phenylamino)-ethylamino]-methyl}-thiophen-3-yl)-piperidin-1-yl-Methanone]
3.1 | O=C(NCc1ccccc1)Nc1ccccc1NCCNCc1cccc(C(=O)N2CCCCC2)c1 [Example 16, 1-Benzyl-3-(2-{2-[3-(piperidine-1-carbonyl)-benzylamino]-ethylamino}-phenyl)-urea]
0.8 | COc1cccc(NCCNCc2cccc(C(=O)N3CCCCC3)c2)c1 [Example 9, (3-{[2-(3-Methoxy-phenylamino)-ethylamino]-methyl}-phenyl)-piperidin-1-yl-methanone]
3 | CC(C)Oc1ccccc1NCCNCc1cccc(C(=O)N2CCCC2)c1 [Example 38, (3-{[2-(2-Isopropoxy-phenylamino)-ethylamino]-methyl}-phenyl)-pyrrolidin-1-yl-methanone]
> 10 | O=C(c1cccc(CNCCNc2ccccc2)c1)N1CCCCC1 [Example 3, {3-[(2-Phenylamino-ethylamino)-methyl]-phenyl}-piperidin-1-yl-methanone]
1.2 | O=C(c1cccc(CNCCNc2ccccc2OC2CCCC2)c1)N1CCCCC1 [Example 7, (3-{[2-(2-Cyclopentyloxy-phenylamino)-ethylamino]-methyl}-phenyl)-piperidin-1-yl-methanone]
3.1 | O=C(c1cccc(CNCCNc2cccc(Cl)c2)c1)N1CCCCC1 [Example 20, (3-{[2-(3-Chloro-phenylamino)-ethylamino]-methyl}-phenyl)-piperidin-1-yl-methanone]
11 | CC(C)Oc1ccccc1NCCN(C)Cc1cccc(C(=O)N2CCCCC2)c1 [Example 27, [3-({[2-(2-Isopropoxy-phenylamino)-ethyl]-methyl-amino}-methyl)-phenyl]-piperidinyl-methanone]
1 | O=C(c1cccc(CNCCNc2ccccc2Br)c1)N1CCCCC1 [Example 17, (3-{[2-(2-Bromo-phenylamino)-ethylamino]-methyl}-phenyl)-piperidin-1-yl-methanone]
1 | CC(C)Oc1cccc(NCCNCc2cccc(C(=O)N3CCCCC3)c2)c1 [Example 10, (3-{[2-(3-Isopropoxy-phenylamino)-ethylamino]-methyl}-phenyl)-piperidin-1-yl-methanone]
> 10 | O=C(Nc1ccccc1)Nc1ccccc1NCCNCc1cccc(C(=O)N2CCCCC2)c1 [Example 15, 1-Phenyl-3-(2-{2-[3-(piperidine-1-carbonyl)-benzylamino]-ethylamino}-phenyl)-urea]
3.1 | CS(=O)(=O)Nc1ccccc1NCCNCc1cccc(C(=O)N2CCCCC2)c1 [Example 14, N-(2-{2-[3-(Piperidine-1-carbonyl)-benzylamino]-ethylamino}-phenyl)methanesulfonamide]
0.955 | O=C(c1cccc(CNCCNc2ccccc2-c2ccsc2)c1)N1CCCCC1 [Example 23, Piperidin-1-yl-(3-{[2-(2-thiophen-3-yl-phenylamino)-ethylamino]-methyl}-phenyl)-methanone]
> 10 | COc1ccccc1-c1ccccc1NCCNCc1cccc(C(=O)N2CCCCC2)c1 [Example 22, (3-{[2-(2′-Methoxy-biphenyl-2-ylamino)-ethylamino]-methyl}-phenyl)-piperidin-1-yl-methanone]
3.1 | CC(C)Nc1ccccc1NCCNCc1cc(C(=O)N2CCCCC2)cs1 [Example 36, (5-{[2-(2-Isopropylamino-phenylamino)-ethylamino]-methyl}-thiophen-3-yl)-piperidinyl-methanone]
1.6 | CC(C)Oc1cccc(N(C)CCN(C)Cc2cccc(C(=O)N3CCCCC3)c2)c1 [Example 31, {3-[({2-[(3-Isopropoxy-phenyl)-methyl-amino]-ethyl}-methyl-amino)-methyl]-phenyl}-piperidin-1-yl-methanone]
3.1 | O=C(c1cccc(CNCCNc2cccc(Br)c2)c1)N1CCCCC1 [Example 18, (3-{[2-(3-Bromo-phenylamino)-ethylamino]-methyl}-phenyl)-piperidin-1-yl-methanone]
3 | O=C(c1cccc(CNCCNc2ccccc2Oc2ccccc2)c1)N1CCCCC1 [Example 8, (3-{[2-(2-Phenoxy-phenylamino)-ethylamino]-methyl}-phenyl)-piperidin-1-yl-methanone]
> 10 | CC(C)Oc1ccccc1NCCNCc1cccc(C(=O)N2CCC(O)CC2)c1 [Example 41, (4-Hydroxy-piperidin-1-yl)-(3-{[2-(2-isopropoxy-phenylamino)-ethylamino]-methyl}-phenyl)-methanone]
4 | CC(C)Oc1ccccc1CCCNCc1cccc(C(=O)N2CCCCC2)c1 [Example 33, (3-{[3-(2-Isopropoxy-phenyl)-propylamino]-methyl}-phenyl)-piperidin-1-yl-methanone]
7.5 | CC(C)Oc1cccc(OCCNCc2cccc(C(=O)N3CCCCC3)c2)c1 [Example 26, (3-{[2-(3-Isopropoxy-phenoxy)-ethylamino]-methyl}-phenyl)-piperidin-1-yl-methanone]
0.4 | CC(C)Oc1ccccc1OCCNCc1cccc(C(=O)N2CCCCC2)c1 [Example 24, (3-{[2-(2-Isopropoxy-phenoxy)-ethylamino]-methyl}-phenyl)-piperidin-1-yl-methanone]
